Experimental data as given in patent US20110028360A1, “ORGANIC CORROSION INHIBITOR PACKAGE FOR ORGANIC ACIDS” (M-I DRILLING FLUIDS U.K. LIMITED, priority 2008, published 2011).

How the values were obtained:
[1] = Biodegradation according to OECD 301B
Method: (§1) Propoxylated prop-2-yn-1-ol, as a raw material for the corrosion inhibitor compositions disclosed herein, was tested for ecotoxicology. Biodegradation was measured according to OECD 301B. EC50 Toxicity was measured according to ISO/DP 10253. Bioaccumulation log Pow was measured according to OECD 117.

[2] = EC50 Toxicity according to ISO/DP 10253
Method: as §1

[3] = Bioaccumulation log Pow according to OECD 117; format: physicochemical
Method: as §1

propoxylated prop-2-yn-1-ol
Biodegradation [1]: 100% (OECD 301B)
Toxicity [2]: 100 mg/L
Bioaccumulation Log Pow [3]: 2
